# From US6084097A, “Methods for preparing 1-[4-arylpiperazin-1-yl]-3-[2-oxopyrrolidin/piperidin-1-yl] propanes” (Council of Scientific & Industrial Research, priority 1997, dated 2000)
# Legend:
# [1] = system: anaesthetized cat; experiment: Effect on blood pressure, heart rate and adrenaline vasopressure response at anaesthetized cat; assay type: in vivo
# Protocol: Effect on blood pressure, heart rate and adrenaline
# (§1) (a) Cats (2.6-4.0 kg) of either sex anaesthetized with pentobarbitone sodium (40 mg/kg i.v.) and showing basal mean arterial blood pressure below 150 mm (Hg) were categorised as normotensive and above 150 mm Hg as hypertensive. Arterial blood pressure (EP) was recorded from one of the carotid artery through a stathum P23 DC pressure transducer and 7P1 low level DC preamplifier on a Grass Model P7 Polygraph, Signals from 7P1 preamplifier were used to trigger 7P4 Tachograph preamplifier for recording the heart rate (HR). Right femoral vein and Trachea were cannulated for intravenous injections and artificial ventilation respectively. Control responses to intravenous injection of noradrenaline (2-4 ug); acetyl choline (1-2 ug); histamine (1-2 ug) and isoprenaline (1-2 ug) were taken before and after the administration of test doses of each compounds.
# [2] = system: Naturally occurring hypertensive cat; experiment: Effect on blood pressure, heart rate and adrenaline vasopressor response, naturally occurring hypertensive cat; assay type: in vivo; settings: n = 4
# Protocol: (§2) 2. Effect on blood pressure, heart rate and adrenaline vasopressor response of anaesthetized (pentobarbitone sodium 40 & 60 mg/kg i.p. in cat and rat respectively) normotensive & hypertensive rat & cat model preparations.
# as §1
# [3] = system: cat; experiment: Drug antagonism studies at 2 uMol dose i.v. in cat; assay type: in vivo; settings: 2 uMol i.v.
# Source text: (B) In viva Drug antagonism studies at 2 uMol dose i.v. in cat: […]
# [4] = system: Normotensive cat; experiment: Effect on blood pressure, heart rate and adrenaline vasopressor response, normotensive cat; assay type: in vivo; settings: n = 4
# Protocol: as §2, §1
# [5] = system: Isolated Guinea pig ileum; experiment: Isolated Guinea pig ileum preparation; settings: in vitro
# [6] = system: Normotensive rat model preparation; experiment: Effect on blood pressure, heart rate and adrenaline vasopressor response, normotensive rat model preparation; assay type: in vivo; settings: n = 2
# Protocol: as §2
# [7] = Site of action: ICV; assay type: in vivo; settings: dose 0.34-1.36
# [8] = system: Isolated aortic strip; experiment: Isolated aortic strip, endothelin induced contraction
# [9] = system: perfused rat heart; experiment: Langendorffs perfused rat heart preparation, chronotropic effect
# [10] = system: Hypertensive rat model preparation; experiment: Effect on blood pressure, heart rate and adrenaline vasopressor response, hypertensive rat model preparation; assay type: in vivo
# Protocol: as §2
# [11] = system: Rat aortic ring; experiment: Rat aortic ring preparation, NE induced contraction; settings: in vitro
# [12] = system: Langendorff perfused rat heart; experiment: Cardioprotective activity, Langendorff perfused rat heart, prolong period of ischemic insult
# Protocol: Further, in Langendorff perfused rat heart preparation subjected to even up to 90 mm. global ischemia, the compound at 0.001 ug/ml conc.
# The rats were killed by decaptitation, heart were rapidly excised and placed in ice-cold HEPES tyrode buffer. Then isolated hearts were perfused retrogradely through coronary arteries using the Langendorff technique. The perfusion buffer consisted (in mM) NaCl 137, KCl 5.4, CaCl2 1.8, MgCl2 1.0, glucose 11.2 and HEPES 3.0. The buffer (pH 7.4) was continuously gassed with oxygen and maintained at 37° C. Coronary flow rate was maintained at 10 ml/min. The heart contracted spontaneously.
# The perfused heart was allowed to equillibrate for 30 min. before initiation of any insult protocol. The test compounds were given at the time of reperfusion. Some of the compounds were dissolved in ethanol. Final concentration of ethanol in the perfusion buffer was 0.0001% and had no effect of its own on the parameter used.
# (b) For prolong period of ischemic insult (Becker, L. C. & Ambrosio, G. Myocardial consenquences of reperfusion. Prog. Cardiovas. Dis., 30, 23-44, 1987). Ischemia was initiated by stopping the flow for 30 min. followed by 30 min. reperfusion.
# [13] = Felis catus, iv, 10.0 umol/kg i.v., read-out: B.P. fall %
# [14] = Felis catus, iv, 2.0 umol/kg i.v.
# [15] = Felis catus, iv, 10.0 umol/kg i.v.
# [16] = 0.001 ug/ml at the time of reperfusion, up to 90 mm. global ischemia
smiles,measurement,setting,value
"COc1ccccc1N1CCN(CCCN2CCCC2=O)CC1 [C6 H4-2-OCH3, n=1]",B.P. fall %,[1]; 2.0 umol/kg i.v.,19%
same,Adrenaline vasopressure response (R/Pt),[1]; 10.0 umol/kg i.v.,R
same,Blood pressure fall % at 10 µmol/kg,[1]; [13],23%
"O=C1CCCN1CCCN1CCN(c2cccc(F)c2)CC1 [C6 H4-3-F, n=1, 1-[4-(3-fluorophenyl)piperazin-1-yl)-3-[2-oxopyrrolidin-1-yl]propane]",Adrenaline vasopressure response (R/Pt),[1]; 10.0 umol/kg i.v.,R
same,inhibition in vivo at 2 µmol/kg,[1]; [14],80%
"O=C1CCCCN1CCCN1CCN(c2cccc(Cl)c2)CC1 [C6 H4-3-Cl, n=2, 1-[4-(3-chlorophenyl)piperazin-1-yl]-3-[2-oxopiperidin-1-yl]propane]",inhibition in vivo at 2 µmol/kg,[1]; [14],33%
same,inhibition in vivo at 10 µmol/kg,[1]; [15],10%
"O=C1CCCN1CCCN1CCN(c2ccc(F)cc2)CC1 [C6 H4-4-F, n=1, 1-[4-(4-fluorophenyl)piperazin-1-yl]-3-[2-oxopyrrolidin-1-yl]propane]",Adrenaline vasopressure response % inhibition,[2]; 10 uMol/kg i.d.,49%
same,B.P. Fall duration,[2]; 10 uMol/kg i.d.,110 min
same,"Adrenaline vasopressure response, R (Reversal)",[2]; 20 uMol/kg i.d.,26%
same,B.P. Fall duration,[2]; 20 uMol/kg i.d.,> 156.75 min
same,Adrenaline vasopressure response (R/Pt),[1]; 10.0 umol/kg i.v.,R
same,inhibition in vivo at 2 µmol/kg,[1]; [14],9%
same,Reduction of antihypertensive effect by pretreatment,[3]; Dup-753 (angiotension II-receptor antagonist) pretreatment,33%
same,Antihypertensive effect after pretreatment,[3]; atropine sulphate pretreatment,failed to alter
same,Reduction of antihypertensive effect by pretreatment,[3]; captopril (ACE inhibitor) pretreatment,33%
same,Fall in blood pressure after pretreatment,[3]; glibenclamide (KATP blocker) pretreatment,only partially reduced
same,Antihypertensive effect after pretreatment,[3]; mepyramine maleate pretreatment,failed to alter
same,Reduction of antihypertensive effect by pretreatment,"[3]; prazosin (alpha1-adrenergic receptor blocker) pretreatment, significantly",90%
same,Antihypertensive effect after pretreatment,[3]; propranolol pretreatment,failed to alter
same,Reduction of antihypertensive effect by pretreatment,"[3]; verapamil (Ca++ channel blocker) pretreatment, significantly",50%
same,Antihypertensive effect after pretreatment,[3]; yohimbine pretreatment,failed to alter
same,Adrenaline vasopressure response % inhibition,[4]; 10 uMol/kg i.d.,26%
same,B.P. Fall duration,[4]; 10 uMol/kg i.d.,85 min
same,B.P. Fall duration,[4]; 20 uMol/kg i.d.,> 102.5 min
same,Endothelin response,[5],relaxation rather than contraction
same,Adrenaline vasopressure response % inhibition,[6]; 2 uMol/kg i.v.,+7%
same,Adrenaline vasopressure response % inhibition,[6]; 10 uMol/kg i.v.,+14%
same,Adrenaline vasopressure response % inhibition,[6]; 20 uMol/kg i.v.,-9.5%
same,B.P. fall Dur.,[7],10 to 15 min
same,Endothelin response after washing the preparation,[8]; after washing the preparation,relaxation rather than contraction
same,Endothelin induced contraction,[8]; in vitro,inhibited significantly
same,"Negative chronotropic effect, duration",[9]; 1 ug,10 min
same,"Negative chronotropic effect, duration",[9]; 3 ug (higher doses 3-5 ug),14 min
same,"Negative chronotropic effect, duration",[9]; 5 ug (higher doses 3-5 ug),5 min
same,inhibition at 0.001 mg,"[9]; Rattus norvegicus, 1 ug, read-out: Negative chronotropic effect",30%
same,inhibition at 0.003 mg,"[9]; Rattus norvegicus, 3 ug (higher doses 3-5 ug), read-out: Negative chronotropic effect",26%
same,inhibition at 0.005 mg,"[9]; Rattus norvegicus, 5 ug (higher doses 3-5 ug), read-out: Negative chronotropic effect",5%
same,Adrenaline vasopressure response % inhibition,"[10]; 5 uMol/kg i.d., n = 3",33%
same,B.P. Fall duration,"[10]; 5 uMol/kg i.d., n = 3",51 min
same,Adrenaline vasopressure response % inhibition,"[10]; 10 uMol/kg i.d., n = 5",23%
same,B.P. Fall duration,"[10]; 10 uMol/kg i.d., n = 5",76 min
same,Adrenaline vasopressure response % inhibition,"[10]; 20 uMol/kg i.d., n = 1",54%
same,B.P. Fall duration,"[10]; 20 uMol/kg i.d., n = 1",100 min
same,NE induced contraction,[11],inhibited
same,Incidence of reperfusion induced arrhythmia,[12]; [16],abolished
same,"Revival of normal rhythmic contraction, start",[12]; [16],≤ 2 mm.
same,"Cardioprotective effect against myocardial stunning, dose",[12]; compared with antihypertensive dose,much smaller dose than antihypertensive dose
"O=C1CCCCN1CCCN1CCN(c2cccc(C(F)(F)F)c2)CC1 [C6 H4-3-CF3, n=2, 1-[4-(3-trifluoromethylphenyl)piperazin-1-yl]-3-[2-oxopiperidin-1-yl]propane]",Adrenaline vasopressure response (R/Pt),[1]; 2.0 umol/kg i.v.,Pt (potentiation (was within 20%))
same,Dur.,[1]; 10.0 umol/kg i.v.,Tr
same,inhibition in vivo at 10 µmol/kg,[1]; [15],25%
"O=C1CCCCN1CCCN1CCN(c2ccccn2)CC1 [2-Pyridyl, n=2, 1-[4-(2-pyridyl)piperazin-1-yl]-3-[2-oxopiperidin-1-yl]propane]",Adrenaline vasopressure response (R/Pt),[1]; 10.0 umol/kg i.v.,Pt (potentiation (was within 20%))
same,inhibition in vivo at 2 µmol/kg,[1]; [14],28%
"O=C1CCCCN1CCCN1CCN(c2ccc(Cl)cc2)CC1 [C6 H4-4-Cl, n=2, 1-[4-(4-chlorophenyl)piperazin-1-yl]-3-[2-oxopiperidin-1-yl]propane]",inhibition in vivo at 2 µmol/kg,[1]; [14],20%
same,inhibition in vivo at 10 µmol/kg,[1]; [15],25%
"O=C1CCCN1CCCN1CCN(c2ccccn2)CC1 [2-Pyridyl, n=1]",Adrenaline vasopressure response (R/Pt),[1]; 10.0 umol/kg i.v.,Pt (potentiation (was within 20%))
same,Blood pressure fall % at 2 µmol/kg,"[1]; Felis catus, iv, 2.0 umol/kg i.v., read-out: B.P. fall %",22%
same,Blood pressure fall % at 10 µmol/kg,[1]; [13],40%
"O=C1CCCN1CCCN1CCN(c2cccc(Cl)c2)CC1 [C6 H4-3-Cl, n=1, 1-[4-(3-chlorophenyl)piperazin-1-yl]-3-[2-oxopyrrolidin-1-yl]propane]",Adrenaline vasopressure response (R/Pt),[1]; 2.0 umol/kg i.v.,Pt-
"CCc1ccccc1N1CCN(CCCN2CCCC2=O)CC1 [C6 H4-2-C2 H5, n=1, 1-[4-(2-ethylphenyl)piperazin-1-Yl]-3-[2-oxopyrrolidin-1-yl]propane]",Adrenaline vasopressure response (R/Pt),[1]; 2.0 umol/kg i.v.,Pt (potentiation (was within 20%))
"O=C1CCCCN1CCCN1CCN(c2ccc(F)cc2)CC1 [C6 H4-4-F, n=2, 1-[4-(4-fluorophenyl)piperazin-1-yl]-3-[2-oxopiperidin-1-yl]propane]",Adrenaline vasopressure response (R/Pt),[1]; 10.0 umol/kg i.v.,R
same,inhibition in vivo at 2 µmol/kg,[1]; [14],46%
